# Experimental data as given in patent US20230398130A1, “METHODS AND COMPOSITIONS FOR DIFFERENTIATING STEM CELLS” (Massachusetts Institute of Technology, priority 2020, published 2023).
# Assays:
# ISC-enriched organoids [1] = test: Primary screen, 384-well 2.5-D organoid differentiation (ENR+CD, 6 days, Target Selective Inhibitor Library, vs whole-plate median): ATP (CellTiter-Glo 3D, CTG); settings: for Dose.FC.CTG: FC vs plate median; for SSMD.CTG: strictly standardized mean difference; for Dose.FC.CTG (log 2 fold change): vs plate median
# ISC-enriched organoids [2] = test: Primary screen, 384-well 2.5-D organoid differentiation (ENR+CD, 6 days): carbachol-induced lysozyme secretion (LYZ.S); type: cell-based, murine; settings: primary screen; for Dose.FC.LYZ.S: FC vs plate median; for Z.LYZ.S: standard z score; for SSMD.LYZ.S: strictly standardized mean difference; for Dose.FC.LYZ.S (log 2 fold change): vs plate median
# Description: (§1) High-throughput screening.
# ISC-enriched organoids [3] = test: Primary screen, 384-well 2.5-D organoid differentiation (ENR+CD, 6 days): basal lysozyme secretion (LYZ.NS); type: cell-based, murine; settings: for Dose.FC.LYZ.NS: FC vs plate median; for SSMD.LYZ.NS: strictly standardized mean difference; for Dose.FC.LYZ.NS (log 2 fold change): vs plate median
# Description: as §1
# [4] = Dose 0.08 uM, standard z score of FC
# [5] = Dose 0.40 uM, standard z score of FC
# [6] = Dose 2.00 uM, standard z score of FC
# [7] = Dose 10.00 uM, standard z score of FC
# [8] = primary screen, 1st of the 4 dose lines of the treatment (dose not given)
# [9] = primary screen, 2nd of the 4 dose lines of the treatment (dose not given)
# [10] = primary screen, 3rd of the 4 dose lines of the treatment (dose not given)
# [11] = primary screen, 4th of the 4 dose lines of the treatment (dose not given)
# [12] = 1st of the 4 dose lines of the treatment (dose not given)
# [13] = 2nd of the 4 dose lines of the treatment (dose not given)
# [14] = 3rd of the 4 dose lines of the treatment (dose not given)
# [15] = 4th of the 4 dose lines of the treatment (dose not given)
# [16] = Dose 0.08 uM, primary screen, standard z score
# [17] = Dose 0.40 uM, primary screen, standard z score
# [18] = Dose 2.00 uM, primary screen, standard z score
# [19] = Dose 10.00 uM, primary screen, standard z score
# [20] = primary screen, dose 0.08 uM, ENR+CD 6 days
# [21] = primary screen, dose 0.08 uM, standard z score of FC
# [22] = primary screen, dose 0.40 uM, ENR+CD 6 days
# [23] = primary screen, dose 0.40 uM, standard z score of FC
# [24] = primary screen, dose 2.00 uM, ENR+CD 6 days
# [25] = primary screen, dose 2.00 uM, standard z score of FC
# [26] = primary screen, dose 10.00 uM, ENR+CD 6 days
# [27] = primary screen, dose 10.00 uM, standard z score of FC
smiles,measurement,setting,value
CCC(CC)(NC(=O)C(C)C)C(=O)N[C@@H](CCCN=C(N)N)C(=O)NC1(C(=O)NC(c2ccc(F)cc2)c2ccc(F)cc2)CCCC1 [MM-102],Dose.FC.CTG,"ISC-enriched organoids [1]; Dose 0.08 uM, primary screen",−0.205 log 2 fold change
same,Z.CTG,ISC-enriched organoids [1]; [4],−0.489
same,Dose.FC.CTG,"ISC-enriched organoids [1]; Dose 0.40 uM, primary screen",−0.132 log 2 fold change
same,Z.CTG,ISC-enriched organoids [1]; [5],−0.315
same,Dose.FC.CTG,"ISC-enriched organoids [1]; Dose 2.00 uM, primary screen",−0.233 log 2 fold change
same,Z.CTG,ISC-enriched organoids [1]; [6],−0.557
same,Dose.FC.CTG,"ISC-enriched organoids [1]; Dose 10.00 uM, primary screen",−0.403 log 2 fold change
same,Z.CTG,ISC-enriched organoids [1]; [7],−0.964
same,SSMD.CTG,ISC-enriched organoids [1]; [8],−0.485
same,SSMD.CTG,ISC-enriched organoids [1]; [9],−0.493
same,SSMD.CTG,ISC-enriched organoids [1]; [10],−0.877
same,SSMD.CTG,ISC-enriched organoids [1]; [11],−1.350
same,Dose.FC.LYZ.S,ISC-enriched organoids [2]; Dose 0.08 uM,−0.027 log 2 fold change
same,Dose.FC.LYZ.S,ISC-enriched organoids [2]; Dose 0.40 uM,−0.001 log 2 fold change
same,Dose.FC.LYZ.S,ISC-enriched organoids [2]; Dose 2.00 uM,−0.035 log 2 fold change
same,Dose.FC.LYZ.S,ISC-enriched organoids [2]; Dose 10.00 uM,−0.194 log 2 fold change
same,Z.LYZ.S,ISC-enriched organoids [2]; [12],−0.177
same,Z.LYZ.S,ISC-enriched organoids [2]; [13],−0.009
same,Z.LYZ.S,ISC-enriched organoids [2]; [14],−0.226
same,Z.LYZ.S,ISC-enriched organoids [2]; [15],−1.252
same,SSMD.LYZ.S,ISC-enriched organoids [2]; [12],−0.148
same,SSMD.LYZ.S,ISC-enriched organoids [2]; [13],−0.010
same,SSMD.LYZ.S,ISC-enriched organoids [2]; [14],−0.218
same,SSMD.LYZ.S,ISC-enriched organoids [2]; [15],−0.881
same,Dose.FC.LYZ.NS,"ISC-enriched organoids [3]; Dose 0.08 uM, primary screen",−0.025 log 2 fold change
same,Z.LYZ.NS,ISC-enriched organoids [3]; [4],−0.220
same,Dose.FC.LYZ.NS,"ISC-enriched organoids [3]; Dose 0.40 uM, primary screen",−0.010 log 2 fold change
same,Z.LYZ.NS,ISC-enriched organoids [3]; [5],−0.090
same,Dose.FC.LYZ.NS,"ISC-enriched organoids [3]; Dose 2.00 uM, primary screen",0.026 log 2 fold change
same,Z.LYZ.NS,ISC-enriched organoids [3]; [6],0.230
same,Dose.FC.LYZ.NS,"ISC-enriched organoids [3]; Dose 10.00 uM, primary screen",−0.164 log 2 fold change
same,Z.LYZ.NS,ISC-enriched organoids [3]; [7],−1.424
same,SSMD.LYZ.NS,ISC-enriched organoids [3]; [8],−0.233
same,SSMD.LYZ.NS,ISC-enriched organoids [3]; [9],−0.084
same,SSMD.LYZ.NS,ISC-enriched organoids [3]; [10],0.128
same,SSMD.LYZ.NS,ISC-enriched organoids [3]; [11],−0.792
NC(=O)c1ccc(I)c([N+](=O)[O-])c1 [Iniparib (BSI-201)],Dose.FC.CTG,"ISC-enriched organoids [1]; Dose 0.08 uM, primary screen",0.339 log 2 fold change
same,Z.CTG,ISC-enriched organoids [1]; [16],0.810
same,Dose.FC.CTG,"ISC-enriched organoids [1]; Dose 0.40 uM, primary screen",0.181 log 2 fold change
same,Z.CTG,ISC-enriched organoids [1]; [17],0.432
same,Dose.FC.CTG,"ISC-enriched organoids [1]; Dose 2.00 uM, primary screen",0.157 log 2 fold change
same,Z.CTG,ISC-enriched organoids [1]; [18],0.375
same,Dose.FC.CTG,"ISC-enriched organoids [1]; Dose 10.00 uM, primary screen",0.244 log 2 fold change
same,Z.CTG,ISC-enriched organoids [1]; [19],0.583
same,SSMD.CTG,ISC-enriched organoids [1]; [8],0.883
same,SSMD.CTG,ISC-enriched organoids [1]; [9],0.347
same,SSMD.CTG,ISC-enriched organoids [1]; [10],0.475
same,SSMD.CTG,ISC-enriched organoids [1]; [11],0.721
same,Dose.FC.LYZ.S,ISC-enriched organoids [2]; Dose 0.08 uM,0.032 log 2 fold change
same,Dose.FC.LYZ.S,ISC-enriched organoids [2]; Dose 0.40 uM,0.035 log 2 fold change
same,Dose.FC.LYZ.S,ISC-enriched organoids [2]; Dose 2.00 uM,−0.001 log 2 fold change
same,Dose.FC.LYZ.S,ISC-enriched organoids [2]; Dose 10.00 uM,−0.010 log 2 fold change
same,Z.LYZ.S,ISC-enriched organoids [2]; [12],0.205
same,Z.LYZ.S,ISC-enriched organoids [2]; [13],0.229
same,Z.LYZ.S,ISC-enriched organoids [2]; [14],−0.006
same,Z.LYZ.S,ISC-enriched organoids [2]; [15],−0.062
same,SSMD.LYZ.S,ISC-enriched organoids [2]; [12],0.148
same,SSMD.LYZ.S,ISC-enriched organoids [2]; [13],0.247
same,SSMD.LYZ.S,ISC-enriched organoids [2]; [14],−0.005
same,SSMD.LYZ.S,ISC-enriched organoids [2]; [15],−0.070
same,Dose.FC.LYZ.NS,"ISC-enriched organoids [3]; Dose 0.08 uM, primary screen",0.042 log 2 fold change
same,Z.LYZ.NS,ISC-enriched organoids [3]; [16],0.364
same,Dose.FC.LYZ.NS,"ISC-enriched organoids [3]; Dose 0.40 uM, primary screen",0.000 log 2 fold change
same,Z.LYZ.NS,ISC-enriched organoids [3]; [17],0.003
same,Dose.FC.LYZ.NS,"ISC-enriched organoids [3]; Dose 2.00 uM, primary screen",0.016 log 2 fold change
same,Z.LYZ.NS,ISC-enriched organoids [3]; [18],0.138
same,Dose.FC.LYZ.NS,"ISC-enriched organoids [3]; Dose 10.00 uM, primary screen",−0.016 log 2 fold change
same,Z.LYZ.NS,ISC-enriched organoids [3]; [19],−0.139
same,SSMD.LYZ.NS,ISC-enriched organoids [3]; [8],0.375
same,SSMD.LYZ.NS,ISC-enriched organoids [3]; [9],0.003
same,SSMD.LYZ.NS,ISC-enriched organoids [3]; [10],0.109
same,SSMD.LYZ.NS,ISC-enriched organoids [3]; [11],−0.163
C[C@H]1COC2(CCN(c3nc(=O)c4cc(C(F)(F)F)cc([N+](=O)[O-])c4s3)CC2)O1 (racemic) [BTZ043 Racemate],Dose.FC.CTG,ISC-enriched organoids [1]; [20],0.497 log 2 fold change
same,Z.CTG,ISC-enriched organoids [1]; [21],1.187
same,Dose.FC.CTG,ISC-enriched organoids [1]; [22],0.545 log 2 fold change
same,Z.CTG,ISC-enriched organoids [1]; [23],1.303
same,Dose.FC.CTG,ISC-enriched organoids [1]; [24],0.063 log 2 fold change
same,Z.CTG,ISC-enriched organoids [1]; [25],0.150
same,Dose.FC.CTG,ISC-enriched organoids [1]; [26],0.327 log 2 fold change
same,Z.CTG,ISC-enriched organoids [1]; [27],0.782
same,Dose.FC.LYZ.S,"ISC-enriched organoids [2]; dose 0.08 uM, ENR+CD 6 days",0.199 log 2 fold change
same,Dose.FC.LYZ.S,"ISC-enriched organoids [2]; dose 0.40 uM, ENR+CD 6 days",0.252 log 2 fold change
same,Dose.FC.LYZ.S,"ISC-enriched organoids [2]; dose 2.00 uM, ENR+CD 6 days",0.038 log 2 fold change
same,Dose.FC.LYZ.S,"ISC-enriched organoids [2]; dose 10.00 uM, ENR+CD 6 days",0.070 log 2 fold change
same,Dose.FC.LYZ.NS,ISC-enriched organoids [3]; [20],0.131 log 2 fold change
same,Z.LYZ.NS,ISC-enriched organoids [3]; [21],1.138
same,Dose.FC.LYZ.NS,ISC-enriched organoids [3]; [22],0.186 log 2 fold change
same,Z.LYZ.NS,ISC-enriched organoids [3]; [23],1.619
same,Dose.FC.LYZ.NS,ISC-enriched organoids [3]; [24],0.089 log 2 fold change
same,Z.LYZ.NS,ISC-enriched organoids [3]; [25],0.776
same,Dose.FC.LYZ.NS,ISC-enriched organoids [3]; [26],0.100 log 2 fold change
same,Z.LYZ.NS,ISC-enriched organoids [3]; [27],0.870
Cc1cn([C@H]2C=C[C@@H](CO)O2)c(=O)[nH]c1=O [Stavudine (d4T)],Z.CTG (standard z score),"ISC-enriched organoids [1]; Dose 0.08 uM, primary screen",0.226
same,Dose.FC.CTG (log 2 fold change),"ISC-enriched organoids [1]; Dose 0.08 uM, primary screen",0.095
same,Z.CTG (standard z score),"ISC-enriched organoids [1]; Dose 0.40 uM, primary screen",0.351
same,Dose.FC.CTG (log 2 fold change),"ISC-enriched organoids [1]; Dose 0.40 uM, primary screen",0.147
same,Z.CTG (standard z score),"ISC-enriched organoids [1]; Dose 2.00 uM, primary screen",0.179
same,Dose.FC.CTG (log 2 fold change),"ISC-enriched organoids [1]; Dose 2.00 uM, primary screen",0.075
same,Z.CTG (standard z score),"ISC-enriched organoids [1]; Dose 10.00 uM, primary screen",−0.179
same,Dose.FC.CTG (log 2 fold change),"ISC-enriched organoids [1]; Dose 10.00 uM, primary screen",−0.075
same,Dose.FC.LYZ.S (log 2 fold change),ISC-enriched organoids [2]; Dose 0.08 uM,0.134
same,Dose.FC.LYZ.S (log 2 fold change),ISC-enriched organoids [2]; Dose 0.40 uM,0.001
same,Dose.FC.LYZ.S (log 2 fold change),ISC-enriched organoids [2]; Dose 2.00 uM,−0.003
same,Dose.FC.LYZ.S (log 2 fold change),ISC-enriched organoids [2]; Dose 10.00 uM,−0.120
same,Z.LYZ.NS (standard z score),"ISC-enriched organoids [3]; Dose 0.08 uM, primary screen",0.620
same,Dose.FC.LYZ.NS (log 2 fold change),"ISC-enriched organoids [3]; Dose 0.08 uM, primary screen",0.071
same,Z.LYZ.NS (standard z score),"ISC-enriched organoids [3]; Dose 0.40 uM, primary screen",0.027
same,Dose.FC.LYZ.NS (log 2 fold change),"ISC-enriched organoids [3]; Dose 0.40 uM, primary screen",0.003
same,Z.LYZ.NS (standard z score),"ISC-enriched organoids [3]; Dose 2.00 uM, primary screen",0.074
same,Dose.FC.LYZ.NS (log 2 fold change),"ISC-enriched organoids [3]; Dose 2.00 uM, primary screen",0.009
same,Z.LYZ.NS (standard z score),"ISC-enriched organoids [3]; Dose 10.00 uM, primary screen",−0.828
same,Dose.FC.LYZ.NS (log 2 fold change),"ISC-enriched organoids [3]; Dose 10.00 uM, primary screen",−0.095
